Test in all cases: NCI-60 cell line screen, 48 h
Test [1] deals with SNB-78 CNS.
The test system of test [2] is DLD-1 colon.
The test system of test [3] is DMS 114 small cell lung.
The test system of test [4] is MDA-MB-435.
Test [5] relates to NCI/ADR-RES ovarian.
Test [6] relates to HOP-18 NSCLC.
Test [7] concerns MDA-N.
Test [8] deals with XF 498 CNS.

The structures appear in SMILES notation. Where “and” joins values, the source holds several entries; their conditions need not be identical. Equal values may be shown once.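 All cell lines were grown in 96-well plates and treated with compound for 48 hours. Here, GI50 denotes the concentration required for 50% inhibition of growth. TGI: total growth inhibition.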

On to `CC(=O)OC1C=CC2CCN3C(=O)c4cc5c(cc4[C@H]1C23)OCO5` (stereo partly drawn), for which the TGI in test [1], in test [2] and in test [3] was greater than 100 µM throughout.

In the case of `CC/C(=N\Nc1nc2ccccc2n1C)c1ccccn1`, the GI50 in test [4] was 0.224 µM; in test [5], 0.0382 µM. Moreover, the TGI in test [4] is 12.7 µM; in test [5], 4.9 µM.

Take `CCN1CCC[C@H]1c1cc(O)c2c(c1OC)C[C@H]1C[C@H]3[C@H](N)C(=O)C(C(N)=O)=C(O)[C@@]3(O)C(=O)C1=C2O`: in test [4], the GI50 is 0.0917 µM and the TGI was 2.34 µM. In test [5], the GI50 is 0.435 µM and the TGI was greater than 61.5 µM.

On to `Cc1cccc(CN(C)c2ccc(CO)c(Cl)c2)c1`, for which, in test [4], the GI50 is 17.2 µM and the TGI worked out at 49.3 µM. Also, in test [5], the GI50 was 17.2 µM and the TGI turned out to be 59.3 µM.

For `COc1ccc(/C=C/C(=O)c2sc(N)nc2C)cc1`, the TGI in test [6], in test [1], in test [2] and in test [3] was greater than 100 µM each time.

In the case of `COc1cc2c(cc1OC)C(CCc1ccc(Cl)cc1)N(C)CC2` (stereo not drawn), the GI50 in test [4] is 16.3 µM; in test [5] it was 17.7 µM. The TGI in test [4] is 41.2 µM; in test [5] it was 39.4 µM.

With `Nc1ccc2c(c1)C(=O)c1ccc(F)cc1-2`, the TGI in test [7], in test [4] and in test [5] was greater than 100 µM throughout.

Turning to `O=C1NC(=NCc2cccs2)SC1Cc1ccc2ncccc2c1` (stereo not drawn), the GI50 is 7.21 µM in test [4] and greater than 25 µM in test [5]. The TGI in test [4] and in test [5] was greater than 25 µM each time.

`O=C(CCCn1c2c(sc3ncccc32)c(=O)n2nnc(-c3ccccc3)c12)NCCc1cnc[nH]1`: in test [4], the GI50 was 0.489 µM and the TGI was 20.5 µM. Also, in test [5], the GI50 was 34.1 µM and the TGI is greater than 100 µM.

`COC(=O)[C@]12CC[C@@H](C)[C@H](C)[C@@H]1C1=CC[C@@H]3[C@@]4(C)C[C@@H](OC(=O)c5ccco5)[C@H](O)[C@@](C)(CO)[C@@H]4[C@H](O)C[C@@]3(C)[C@]1(C)CC2`: in test [4], the GI50 was 2.29 µM and the TGI was 5.75 µM. In addition, in test [5], the GI50 was 2.59 µM and the TGI came out at 7.12 µM.

For `O=C1Cc2cc(CCn3ccnc3)c(Cl)cc2N1`, in test [4], the GI50 is 3.12 µM and the TGI is 15.2 µM. Besides, in test [5], the GI50 is 5.46 µM and the TGI was greater than 100 µM.

Regarding `Cc1cccc2c1Oc1cc(Cl)ccc1C2NC(=O)CCN1CCCCC1` (stereo not drawn), the TGI was found to be 33.1 µM in test [7], 30.7 µM in test [4] and 32 µM in test [5].

As for `C/C(=N\NC(=O)CC(=O)Nc1ccc(C)cc1)c1cc2ccccc2oc1=O`, the TGI in test [6], in test [8], in test [2] and in test [3] was greater than 100 µM each time.

Take `COC1=C(OC)C(=O)C(/C=C(\C)C(=O)O)=C(C)C1=O`: in test [4], the GI50 was greater than 100 µM and the TGI is greater than 100 µM. Further, in test [5], the GI50 is greater than 100 µM and the TGI is greater than 100 µM.

On to `Fc1ccc(-c2nc(-c3nc4ccc(Cl)cc4[nH]3)cc3c2[nH]c2ccccc23)cc1`, for which, in test [4], the GI50 was 3.59 µM and the TGI came out at 14.3 µM. In test [5], the GI50 is 3.42 µM and the TGI was determined as 28.3 µM.

On to `CCOc1ccc(Cc2nccc3cc(OCC)c(OCC)cc23)cc1OCC`, for which, in test [4], the GI50 was 5.78 µM and the TGI was 23.1 µM. Further, in test [5], the GI50 is 4.87 µM and the TGI was determined as 39.6 µM.

With `c1cncc(CNc2ccccc2-c2nnc(Nc3ccc4c(c3)OCO4)o2)c1`, in test [5], the GI50 was 0.0291 µM and the TGI came to 0.142 µM.

`O=[N+]([O-])c1cccc(C2SCc3nc4ccccc4n32)c1` (stereo not drawn): the TGI in test [6], in test [1], in test [2] and in test [3] was greater than 100 µM throughout.

Consider `CC(=O)Nc1ccc2nncnc2c1`, for which the TGI in test [7], in test [4] and in test [5] was greater than 100 µM throughout.

`O=C1NC(=NCC(CO)c2ccccc2)S/C1=C\c1ccc2ncccc2c1` (stereo not drawn): in test [4], the GI50 is 11.3 µM and the TGI is greater than 25 µM. In test [5], the GI50 is greater than 25 µM and the TGI is greater than 25 µM.

`CC1=C(N2CC2)C(=O)C(CO)=C(N2CC2)C1=O`: the GI50 in test [7] was 0.0284 µM and 0.0259 µM; in test [4] it was 0.0386 µM and 0.0393 µM; in test [5], 0.0161 µM. The TGI in test [7] is 0.138 µM and 0.106 µM; in test [4], 0.169 µM and 0.151 µM; in test [5], 0.0671 µM and 0.0182 µM.

With `CCCNc1nc(N(C)O)nc(N(C)O)n1`, the GI50 was 4.95 µM in test [4] and 2.15 µM in test [5]. The TGI in test [4] and in test [5] was greater than 100 µM each time.

For `OC(c1cc(C(O)(C(F)(F)F)C(F)(F)F)ncn1)(C(F)(F)F)C(F)(F)F`, the TGI in test [7], in test [4] and in test [5] was greater than 10 µM each time.

On to `C=C1CC[C@@H]2C(C)(C)[C@@H](O)CC[C@@]2(C)[C@@H]1COc1ccc2ccc(=O)oc2c1`, for which, in test [4], the GI50 is 13.6 µM and the TGI came out at 27.6 µM. Further, in test [5], the GI50 was 10.5 µM and the TGI turned out to be 30.8 µM.

With `Nc1nc(N)c2cc(CNc3ccc(Cl)c(Cl)c3)ccc2n1`, the GI50 is 0.38 µM in test [4] and 0.802 µM in test [5]. In addition, the TGI amounted to 1.78 µM in test [4] and 3.25 µM in test [5].

Regarding `CC(=O)NNc1nc(C)c(C(=O)NNC(=O)C(=O)Nc2ccc(C)c(C)c2)s1`, the TGI in test [6], in test [1], in test [2] and in test [3] was greater than 100 µM throughout.

In the case of `CCN1CCN(CCOc2ccc(CNc3ccc4nc(CCC5CCCCC5)[nH]c4c3)cc2)CC1`, the results for the GI50 in test [4] and in test [5] were 1.78 µM and 3.11 µM, respectively. For the same compound, the TGI in test [4] worked out at 3.73 µM; in test [5], 11.2 µM.

(Values after PubChem BioAssay (NCI).)
